Results reported in patent publication US20130190223A1, “NONIMMUNOSUPPRESSIVE CYCLOSPORINE ANALOGUE MOLECULES” (ISOTECHNIKA PHARMA INC., priority 2008, published 2013).

Key:
CyP-D = target: T1, CyP-D (Rattus norvegicus, UniProt P29117); type: biochemical; conditions: mitochondria isolated from rat liver, 190 μM calcium, swelling as decline in A540
T1 construct: Mitochondria were isolated from fresh rat liver; from tissue; host or cells: rat liver mitochondria
Source text: A mitochondria swelling assay was used to measure the efficacy of NICAMs in blocking CyP-D and mitochondrial permeability transition. Under certain pathological conditions, mitochondria lose the ability to regulate calcium levels, and excessive calcium accumulation in the mitochondrial matrix results in the opening of large pores in the inner mitochondrial membrane. Nonselective conductance of ions and molecules up to 1.5 kilodaltons through the pore, a process called mitochondrial permeability transition, leads to swelling of mitochondria and other events which culminate in cell death. […] In general, mitochondria isolated from rat liver were exposed to calcium to induce MPTP opening in the absence or presence of test compounds, and calcium-induced swelling was measured as a reduction in light absorbance at 540 nm.
Mitochondria were isolated from fresh rat liver. Ice-cold or 4° C. conditions were used throughout all steps of the isolation. The liver was rinsed thoroughly and chopped in a small volume of isolation buffer (IB; 10 mM Hepes, 70 mM sucrose, 210 mM mannitol, 0.5 mM EDTA). Aliquots of the minced liver were homogenized in IB using a Teflon-glass Potter-Elvehjem tissue grinder and passed through a cell screen filter. The filtered homogenate was centrifuged at 600 g for 10 min, then the resulting supernatant centrifuged at 7000 g for 10 min. The supernatant was discarded, and the pellet resuspended in wash buffer (10 mM Hepes, 70 mM sucrose, 210 mM mannitol) and centrifuged a final time at 7000 g for 10 min. The supernatant was discarded, and the mitochondria-containing pellet suspended and stored on ice in 2 mL of respiration buffer (RB; 5 mM Hepes, 70 mM sucrose, 210 mM mannitol, 10 mM sodium succinate, 1 mM sodium phosphate dibasic).
Test compound solutions were prepared from 10 mg/ml stocks (dimethyl sulfoxide vehicle) first by diluting the test compound 1000× into respiration buffer #2 (RB2; 5 mM Hepes, 70 mM sucrose, 210 mM mannitol, 10 mM sodium succinate, 1 mM sodium phosphate dibasic, 1% fetal bovine serum, 2 μM rotenone), then by 3×-serial dilutions in RB2 to achieve test compound concentrations of 10000, 3333, 1111, 370, 123, 41, and 14 ng/mL. Polystyrene tubes and plates were used for all preparations.
Swelling assays were completed in a 96-well flat-bottom polystyrene plates. In each well a 10-μL aliquot of mitochondria suspension, equivalent to 100-200 μg total protein, was combined with 90 μL of test compound, incubated for 10 min, then the baseline absorbance measured on a plate reader (540 nm wavelength; A540). Swelling was induced by adding 5 μL of 4 mM calcium chloride to achieve a final calcium concentration of 190 μM. Mitochondria swelling was indicated by a decline in A540. […] Duplicate samples were assayed for each test compound concentration.
Means and ranges of duplicate samples are shown.

human lymphocytes = test: Immunosuppressive potency: inhibition of proliferation of anti-CD3 stimulated human lymphocytes (CFSE, flow cytometry); type: cell-based; conditions: relative potency: IC50 for inhibition of cell division normalized to CsA, 3 days incubation
Method: The immunosuppressive potency of test compounds was assessed by measuring their ability to inhibit the proliferation of human lymphocytes in cell culture. Lymphocytes were isolated from blood of normal human volunteers by Ficoll-gradient centrifugation and stained with 2 μg/ml carboxyfluoroscein diacetate succinimydyl ester (CFSE), a fluorescent cell division tracer molecule. Cells were stimulated through the CD3/T-cell receptor by seeding cells at 300,000/well into 96-well flat-bottom, high-binding plates coated with 1 μg/ml UCHT-1 anti-human CD3 antibody. Test compounds were prepared first as 10 mg/ml stock solutions in dimethylsulfoxide (DMSO). Test solutions were prepared by 500-fold dilution of the DMSO stock solutions, then 3-fold serial dilutions in cell culture medium (RPMI+5% FBS+penicillin-steptomycin) for a total of 7 concentrations per compound. Test solutions were added in equal volume to the culture wells containing cells to achieve final concentrations after dilution of 13.7 ng/ml-10,000 ng/ml. […] Following 3 days incubation cells were stained with CD95-APC (lymphocyte activation marker) and analyzed by flow cytometry with a Becton Dickinson FACSCalibur. Percentage cell division was assessed in forward/side-scatter-gated lymphocytes by measuring the proportion of cells that underwent one or more cell divisions as determined by serial halving of CFSE intensity. The nondivided parent population was determined from samples maintained in culture without anti-CD3 stimulation. IC50 values for inhibition of cell division were determined by nonlinear regression analysis. […]

T1 sequence (P29117 30-206): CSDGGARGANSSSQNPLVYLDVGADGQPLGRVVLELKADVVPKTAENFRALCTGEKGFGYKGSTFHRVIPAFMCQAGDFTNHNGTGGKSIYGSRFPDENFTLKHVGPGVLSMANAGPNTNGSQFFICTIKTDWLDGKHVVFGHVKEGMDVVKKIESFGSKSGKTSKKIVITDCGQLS

SMILES	CYP-D Inhibition (% Potency Vs CsA) (CyP-D) [%]	Immunosuppression (% Relative to CsA) (human lymphocytes) [%]
CCCC=CCC(C)C(O)C1C(=O)NC(CC)C(=O)N(C)CC(=O)N(C)C(CC(C)C)C(=O)NC(C(C)C)C(=O)N(C)C(CC(C)C)C(=O)NC(C)C(=O)NC(C)C(=O)N(C)C(CC(C)C)C(=O)N(C)C(CC(C)C)C(=O)N(C)C(C(C)C)C(=O)N1C (stereo not shown) [Compound 404-26]	58.4	–
CCCCCCCC=CCC(C)C(O)C1C(=O)NC(CC)C(=O)N(C)CC(=O)N(C)C(CC(C)C)C(=O)NC(C(C)C)C(=O)N(C)C(CC(C)C)C(=O)NC(C)C(=O)NC(C)C(=O)N(C)C(CC(C)C)C(=O)N(C)C(CC(C)C)C(=O)N(C)C(C(C)C)C(=O)N1C (stereo not shown) [Compound 404-44]	1.2	1
CCC1NC(=O)C(C(O)C(C)CCCCC(=O)N(CC)CC)N(C)C(=O)C(C(C)C)N(C)C(=O)C(CC(C)C)N(C)C(=O)C(CC(C)C)N(C)C(=O)C(C)NC(=O)C(C)NC(=O)C(CC(C)C)N(C)C(=O)C(C(C)C)NC(=O)C(CC(C)C)N(C)C(=O)CN(C)C1=O (stereo not shown) [Compound 404-85]	128.7	2
CCC1NC(=O)C(C(O)C(C)CCCC(C)O)N(C)C(=O)C(C(C)C)N(C)C(=O)C(CC(C)C)N(C)C(=O)C(CC(C)C)N(C)C(=O)C(C)NC(=O)C(C)NC(=O)C(CC(C)C)N(C)C(=O)C(C(C)C)NC(=O)C(CC(C)C)N(C)C(=O)CN(C)C1=O (stereo not shown) [Compound 404-98]	162.7	3
CCC1NC(=O)C(C(O)C(C)CC(O)CO)N(C)C(=O)C(C(C)C)N(C)C(=O)C(CC(C)C)N(C)C(=O)C(CC(C)C)N(C)C(=O)C(C)NC(=O)C(C)NC(=O)C(CC(C)C)N(C)C(=O)C(C(C)C)NC(=O)C(CC(C)C)N(C)C(=O)CN(C)C1=O (stereo not shown) [Compound 404-126]	24.6	<1
CCC1NC(=O)C(C(O)C(C)CCCCC(N)=O)N(C)C(=O)C(C(C)C)N(C)C(=O)C(CC(C)C)N(C)C(=O)C(CC(C)C)N(C)C(=O)C(C)NC(=O)C(C)NC(=O)C(CC(C)C)N(C)C(=O)C(C(C)C)NC(=O)C(CC(C)C)N(C)C(=O)CN(C)C1=O (stereo not shown) [Compound 404-130]	114.7	<1
CCC1NC(=O)C(C(O)C(C)CCCCC(=O)N(C)C)N(C)C(=O)C(C(C)C)N(C)C(=O)C(CC(C)C)N(C)C(=O)C(CC(C)C)N(C)C(=O)C(C)NC(=O)C(C)NC(=O)C(CC(C)C)N(C)C(=O)C(C(C)C)NC(=O)C(CC(C)C)N(C)C(=O)CN(C)C1=O (stereo not shown) [Compound 404-132]	122.0	<1
CCC1NC(=O)C(C(O)C(C)CC=CCCCCC(=O)N(C)C)N(C)C(=O)C(C(C)C)N(C)C(=O)C(CC(C)C)N(C)C(=O)C(CC(C)C)N(C)C(=O)C(C)NC(=O)C(C)NC(=O)C(CC(C)C)N(C)C(=O)C(C(C)C)NC(=O)C(CC(C)C)N(C)C(=O)CN(C)C1=O (stereo not shown) [Compound 404-154]	119.4	2
CCC1NC(=O)C(C(O)C(C)CC=CCCCC(=O)N(C)C)N(C)C(=O)C(C(C)C)N(C)C(=O)C(CC(C)C)N(C)C(=O)C(CC(C)C)N(C)C(=O)C(C)NC(=O)C(C)NC(=O)C(CC(C)C)N(C)C(=O)C(C(C)C)NC(=O)C(CC(C)C)N(C)C(=O)CN(C)C1=O (stereo not shown) [Compound 404-156]	82.2	1
CCC1NC(=O)C(C(O)C(C)CC=CCCC(=O)N(C)C)N(C)C(=O)C(C(C)C)N(C)C(=O)C(CC(C)C)N(C)C(=O)C(CC(C)C)N(C)C(=O)C(C)NC(=O)C(C)NC(=O)C(CC(C)C)N(C)C(=O)C(C(C)C)NC(=O)C(CC(C)C)N(C)C(=O)CN(C)C1=O (stereo not shown) [Compound 404-157]	142.3	<1
CCC1NC(=O)C(C(O)C(C)CC=CCCCCC(=O)N2CCOCC2)N(C)C(=O)C(C(C)C)N(C)C(=O)C(CC(C)C)N(C)C(=O)C(CC(C)C)N(C)C(=O)C(C)NC(=O)C(C)NC(=O)C(CC(C)C)N(C)C(=O)C(C(C)C)NC(=O)C(CC(C)C)N(C)C(=O)CN(C)C1=O (stereo not shown) [Compound 404-162]	91.1	<1
CCC1NC(=O)C(C(O)C(C)CC=CCCCCC(N)=O)N(C)C(=O)C(C(C)C)N(C)C(=O)C(CC(C)C)N(C)C(=O)C(CC(C)C)N(C)C(=O)C(C)NC(=O)C(C)NC(=O)C(CC(C)C)N(C)C(=O)C(C(C)C)NC(=O)C(CC(C)C)N(C)C(=O)CN(C)C1=O (stereo not shown) [Compound 404-164]	98.9	–
CCCNC(=O)CCC=CCC(C)C(O)C1C(=O)NC(CC)C(=O)N(C)CC(=O)N(C)C(CC(C)C)C(=O)NC(C(C)C)C(=O)N(C)C(CC(C)C)C(=O)NC(C)C(=O)NC(C)C(=O)N(C)C(CC(C)C)C(=O)N(C)C(CC(C)C)C(=O)N(C)C(C(C)C)C(=O)N1C (stereo not shown) [Compound 404-178]	71.3	<1
CCC1NC(=O)C(C(O)C(C)CC=CCCC#N)N(C)C(=O)C(C(C)C)N(C)C(=O)C(CC(C)C)N(C)C(=O)C(CC(C)C)N(C)C(=O)C(C)NC(=O)C(C)NC(=O)C(CC(C)C)N(C)C(=O)C(C(C)C)NC(=O)C(CC(C)C)N(C)C(=O)CN(C)C1=O (stereo not shown) [Compound 404-194]	123.2	2
CCC(O)CCCC(C)C(O)C1C(=O)NC(CC)C(=O)N(C)CC(=O)N(C)C(CC(C)C)C(=O)NC(C(C)C)C(=O)N(C)C(CC(C)C)C(=O)NC(C)C(=O)NC(C)C(=O)N(C)C(CC(C)C)C(=O)N(C)C(CC(C)C)C(=O)N(C)C(C(C)C)C(=O)N1C (stereo not shown) [Compound 404-195]	143.1	2
CCC1NC(=O)C(C(O)C(C)CCCO)N(C)C(=O)C(C(C)C)N(C)C(=O)C(CC(C)C)N(C)C(=O)C(CC(C)C)N(C)C(=O)C(C)NC(=O)C(C)NC(=O)C(CC(C)C)N(C)C(=O)C(C(C)C)NC(=O)C(CC(C)C)N(C)C(=O)CN(C)C1=O (stereo not shown) [Compound 420-28]	78.0	<1
C=CCC(O)CCCC(C)C(O)C1C(=O)NC(CC)C(=O)N(C)CC(=O)N(C)C(CC(C)C)C(=O)NC(C(C)C)C(=O)N(C)C(CC(C)C)C(=O)NC(C)C(=O)NC(C)C(=O)N(C)C(CC(C)C)C(=O)N(C)C(CC(C)C)C(=O)N(C)C(C(C)C)C(=O)N1C (stereo not shown) [Compound 420-49-1]	143.6	3
CCC1NC(=O)C(C(O)C(C)CC=CCCCCCCCCCC(=O)N(C)C)N(C)C(=O)C(C(C)C)N(C)C(=O)C(CC(C)C)N(C)C(=O)C(CC(C)C)N(C)C(=O)C(C)NC(=O)C(C)NC(=O)C(CC(C)C)N(C)C(=O)C(C(C)C)NC(=O)C(CC(C)C)N(C)C(=O)CN(C)C1=O (stereo not shown) [Compound 420-104]	55.8	11
CCC1NC(=O)C(C(O)C(C)CCCCCCCCO)N(C)C(=O)C(C(C)C)N(C)C(=O)C(CC(C)C)N(C)C(=O)C(CC(C)C)N(C)C(=O)C(C)NC(=O)C(C)NC(=O)C(CC(C)C)N(C)C(=O)C(C(C)C)NC(=O)C(CC(C)C)N(C)C(=O)CN(C)C1=O (stereo not shown) [Compound 420-112]	106.7	2
CCC1NC(=O)C(C(O)C(C)CCCCCCCCCNC(=O)OC(C)(C)C)N(C)C(=O)C(C(C)C)N(C)C(=O)C(CC(C)C)N(C)C(=O)C(CC(C)C)N(C)C(=O)C(C)NC(=O)C(C)NC(=O)C(CC(C)C)N(C)C(=O)C(C(C)C)NC(=O)C(CC(C)C)N(C)C(=O)CN(C)C1=O (stereo not shown) [Compound 420-125]	42.4	–
